Data published in ChEMBL document CHEMBL3232991, “New polyfunctional imidazo[4,5-C]pyridine motifs: synthesis, crystal studies, docking studies and antimicrobial evaluation” (Eur J Med Chem, 2014).
Values after ≈ are worked out from the molar mass of the structure shown. Active and inactive are the calls of the source. The calls are words filed in the database; no cut-off is given here.

Tests used:
[1] = system: Candida albicans; experiment: Antifungal activity against Candida albicans MTCC 183 assessed as diameter of growth inhibition zone at 1000 ug/ml after 4 days by agar disc diffusion method; type: functional; conditions: for zone of inhibition at 1000 µg/mL: MTCC 183, 96 h, read-out: DIZ
[2] = system: Escherichia coli; experiment: Antibacterial activity against Escherichia coli NCIM 2931 assessed as diameter of growth inhibition zone at 500 ug/ml after 20 hrs by agar disc diffusion method; type: functional; conditions: for zone of inhibition at 500 µg/mL: NCIM 2931, 20 h, read-out: DIZ
[3] = system: Candida albicans; experiment: Antifungal activity against Candida albicans MTCC 183 assessed as diameter of growth inhibition zone at 500 ug/ml after 4 days by agar disc diffusion method; type: functional; conditions: for zone of inhibition at 500 µg/mL: MTCC 183, 96 h, read-out: DIZ
[4] = system: Staphylococcus aureus; experiment: Antibacterial activity against Staphylococcus aureus MTCC 4102 assessed as diameter of growth inhibition zone at 1000 ug/ml after 20 hrs by agar disc diffusion method; type: functional
[5] = system: Bacillus cereus; experiment: Antibacterial activity against Bacillus cereus NCIM 2155 assessed as diameter of growth inhibition zone at 500 ug/ml after 20 hrs by agar disc diffusion method; type: functional; conditions: for zone of inhibition at 500 µg/mL: NCIM 2155, 20 h, read-out: DIZ
[6] = system: Saccharomyces cerevisiae; experiment: Antifungal activity against Saccharomyces cerevisiae NCIM 3044 assessed as diameter of growth inhibition zone at 1000 ug/ml after 4 days by agar disc diffusion method; type: functional
[7] = system: Bacillus cereus; experiment: Antibacterial activity against Bacillus cereus NCIM 2155 assessed as diameter of growth inhibition zone at 1000 ug/ml after 20 hrs by agar disc diffusion method; type: functional; conditions: for zone of inhibition at 1000 µg/mL: NCIM 2155, 20 h, read-out: DIZ
[8] = system: Escherichia coli; experiment: Antibacterial activity against Escherichia coli NCIM 2931 assessed as diameter of growth inhibition zone at 1000 ug/ml after 20 hrs by agar disc diffusion method; type: functional; conditions: for zone of inhibition at 1000 µg/mL: NCIM 2931, 20 h, read-out: DIZ
[9] = system: Pseudomonas aeruginosa; experiment: Antibacterial activity against Pseudomonas aeruginosa MTCC 4727 assessed as diameter of growth inhibition zone at 500 ug/ml after 20 hrs by agar disc diffusion method; type: functional; conditions: for zone of inhibition at 500 µg/mL: MTCC 4727, 20 h, read-out: DIZ
[10] = system: Saccharomyces cerevisiae; experiment: Antifungal activity against Saccharomyces cerevisiae NCIM 3044 assessed as diameter of growth inhibition zone at 500 ug/ml after 4 days by agar disc diffusion method; type: functional
[11] = system: Pseudomonas aeruginosa; experiment: Antibacterial activity against Pseudomonas aeruginosa MTCC 4727 assessed as diameter of growth inhibition zone at 1000 ug/ml after 20 hrs by agar disc diffusion method; type: functional; conditions: for zone of inhibition at 1000 µg/mL: MTCC 4727, 20 h, read-out: DIZ
[12] = system: Staphylococcus aureus; experiment: Antibacterial activity against Staphylococcus aureus MTCC 4102 assessed as diameter of growth inhibition zone at 500 ug/ml after 20 hrs by agar disc diffusion method; type: functional
[13] = system: Candida albicans; experiment: Antifungal activity against Candida albicans MTCC 183 assessed as assessed as growth inhibition after 48 hrs by broth microdilution method; type: functional, organism-based; conditions: MTCC 183, 48 h
[14] = system: Staphylococcus aureus; experiment: Antibacterial activity against Staphylococcus aureus MTCC 4102 assessed as diameter of growth inhibition zone at 10 ug/ml after 20 hrs by agar disc diffusion method; type: functional
[15] = system: Escherichia coli; experiment: Antibacterial activity against Escherichia coli NCIM 2931 assessed as diameter of growth inhibition zone at 10 ug/ml after 20 hrs by agar disc diffusion method; type: functional
[16] = system: Pseudomonas aeruginosa; experiment: Antibacterial activity against Pseudomonas aeruginosa MTCC 4727 assessed as diameter of growth inhibition zone at 10 ug/ml after 20 hrs by agar disc diffusion method; type: functional
[17] = system: Saccharomyces cerevisiae; experiment: Antifungal activity against Saccharomyces cerevisiae NCIM 3044 assessed as diameter of growth inhibition zone at 10 ug/ml after 4 days by agar disc diffusion method; type: functional
[18] = system: Candida albicans; experiment: Antifungal activity against Candida albicans MTCC 183 assessed as diameter of growth inhibition zone at 10 ug/ml after 4 days by agar disc diffusion method; type: functional
[19] = system: Bacillus cereus; experiment: Antibacterial activity against Bacillus cereus NCIM 2155 assessed as diameter of growth inhibition zone at 10 ug/ml after 20 hrs by agar disc diffusion method; type: functional
[20] = system: Saccharomyces cerevisiae; experiment: Antifungal activity against Saccharomyces cerevisiae NCIM 3044 assessed as growth inhibition after 48 hrs by broth microdilution method; type: functional, organism-based; conditions: NCIM 3044, 48 h

SMILES | diameter of the inhibition zone (DIZ) [1] | diameter of the inhibition zone (DIZ) [2] | diameter of the inhibition zone (DIZ) [3] | diameter of the inhibition zone (DIZ) [4] | diameter of the inhibition zone (DIZ) [5] | diameter of the inhibition zone (DIZ) [6] | diameter of the inhibition zone (DIZ) [7] | diameter of the inhibition zone (DIZ) [8] | diameter of the inhibition zone (DIZ) [9] | diameter of the inhibition zone (DIZ) [10] | diameter of the inhibition zone (DIZ) [11] | diameter of the inhibition zone (DIZ) [12] | other results
N#CC1CCCN(c2ncc(-c3cccc(F)c3)c3[nH]c(Cc4cc(F)ccc4F)nc23)C1 (stereo not drawn) | inactive | inactive | inactive | inactive | inactive | inactive | inactive | inactive | inactive | inactive | inactive | inactive | 
CC(C)(C)Cc1nc2c(N3CCCC(C#N)C3)ncc(-c3cccc(F)c3)c2[nH]1 (stereo not drawn) | inactive | inactive | inactive | inactive | inactive | inactive | inactive | inactive | inactive | inactive | inactive | inactive | 
Cn1cc(-c2cnc(N3CCC(C#N)CC3)c3nc(CCc4ccccc4)[nH]c23)cn1 |  |  |  |  | inactive | inactive | inactive |  | inactive | inactive | inactive |  | zone of inhibition at 1000 µg/mL [1]: 22 mm; zone of inhibition at 500 µg/mL [2]: 5.4 mm; zone of inhibition at 500 µg/mL [3]: 12.3 mm; zone of inhibition at 1000 µg/mL ([4]; MTCC 4102, 20 h, read-out: DIZ): 10 mm; IC50 [13]: 73.7 µg/mL (≈ 179 µM); MIC [13]: 195 µg/mL (≈ 475 µM); zone of inhibition at 1000 µg/mL [8]: 12 mm; zone of inhibition at 500 µg/mL ([12]; MTCC 4102, 20 h, read-out: DIZ): 4.2 mm
N#CC1CCCN(c2ncc(-c3cccc(F)c3)c3[nH]c(CSc4ccccc4)nc23)C1 (stereo not drawn) | inactive | inactive | inactive | inactive | inactive | inactive | inactive | inactive |  | inactive |  | inactive | zone of inhibition at 500 µg/mL [9]: 5.2 mm; zone of inhibition at 1000 µg/mL [11]: 11 mm
OC(Cn1cncn1)(Cn1cncn1)c1ccc(F)cc1F [FLUCONAZOLE] |  |  |  |  |  |  |  |  |  |  |  |  | diameter of the inhibition zone (DIZ) [14]: inactive; diameter of the inhibition zone (DIZ) [15]: inactive; diameter of the inhibition zone (DIZ) [16]: inactive; zone of inhibition at 10 µg/mL ([17]; NCIM 3044, 96 h, read-out: DIZ): 24 mm; zone of inhibition at 10 µg/mL ([18]; MTCC 183, 96 h, read-out: DIZ): 25 mm; diameter of the inhibition zone (DIZ) [19]: inactive
N#CC1CCCN(c2ncc(-c3cccc(F)c3)c3[nH]c(COc4ccccc4)nc23)C1 (stereo not drawn) | inactive | inactive | inactive | inactive |  |  |  | inactive | inactive |  | inactive | inactive | zone of inhibition at 500 µg/mL [5]: 2.8 mm; zone of inhibition at 1000 µg/mL ([6]; NCIM 3044, 96 h, read-out: DIZ): 19 mm; zone of inhibition at 1000 µg/mL [7]: 6 mm; zone of inhibition at 500 µg/mL ([10]; NCIM 3044, 96 h, read-out: DIZ): 8.7 mm; IC50 [20]: 192 µg/mL (≈ 449 µM); MIC [20]: 384 µg/mL (≈ 898 µM)
N#CC1CCCN(c2ncc(-c3cccc(F)c3)c3[nH]c(C4CCCCC4)nc23)C1 (stereo not drawn) | inactive |  | inactive | inactive | inactive | inactive | inactive |  | inactive | inactive | inactive | inactive | zone of inhibition at 500 µg/mL [2]: 6 mm; zone of inhibition at 1000 µg/mL [8]: 12.5 mm
CN[C@@H]1[C@H](O[C@H]2[C@H](O[C@H]3[C@H](O)[C@@H](O)[C@H](N=C(N)N)[C@@H](O)[C@@H]3N=C(N)N)O[C@@H](C)[C@]2(O)C=O)O[C@@H](CO)[C@H](O)[C@H]1O [STREPTOMYCIN] |  |  |  |  |  |  |  |  |  |  |  |  | zone of inhibition at 10 µg/mL ([14]; MTCC 4102, 20 h, read-out: DIZ): 23.8 mm; zone of inhibition at 10 µg/mL ([15]; NCIM 2931, 20 h, read-out: DIZ): 21.4 mm; zone of inhibition at 10 µg/mL ([16]; MTCC 4727, 20 h, read-out: DIZ): 20.9 mm; diameter of the inhibition zone (DIZ) [17]: inactive; diameter of the inhibition zone (DIZ) [18]: inactive; zone of inhibition at 10 µg/mL ([19]; NCIM 2155, 20 h, read-out: DIZ): 20.2 mm
Cc1cccc(Cc2nc3c(N4CCCC(C#N)C4)ncc(-c4cccc(F)c4)c3[nH]2)c1 (stereo not drawn) |  | inactive |  | inactive | inactive | inactive | inactive | inactive |  | inactive |  | inactive | zone of inhibition at 1000 µg/mL [1]: 15 mm; zone of inhibition at 500 µg/mL [3]: 6.8 mm; IC50 [13]: 206 µg/mL (≈ 485 µM); MIC [13]: 404 µg/mL (≈ 950 µM); zone of inhibition at 500 µg/mL [9]: 6.2 mm; zone of inhibition at 1000 µg/mL [11]: 13 mm
Cn1cc(-c2cnc(N3CCC(C#N)CC3)c3nc(Cc4ccc(Cl)cc4Cl)[nH]c23)cn1 | inactive | inactive | inactive | inactive | inactive | inactive | inactive | inactive | inactive | inactive | inactive | inactive | 
CCC(CC)c1nc2c(N3CCCC(C#N)C3)ncc(-c3cccc(F)c3)c2[nH]1 (stereo not drawn) | inactive | inactive | inactive | inactive | inactive | inactive | inactive | inactive | inactive | inactive | inactive | inactive | 
N#CC1CCCN(c2ncc(-c3cccc(F)c3)c3[nH]c(CCc4ccccc4)nc23)C1 (stereo not drawn) | inactive | inactive | inactive | inactive |  | inactive |  | inactive | inactive | inactive | inactive | inactive | zone of inhibition at 500 µg/mL [5]: 6.7 mm; zone of inhibition at 1000 µg/mL [7]: 13 mm
